From PMC3280214, “Structure Based Discovery of Small Molecules to Regulate the Activity of Human Insulin Degrading Enzyme” (PLoS ONE, 2012)

Target: T1, double mutant IDE (Gln363Ala, His332Ala) (Homo sapiens, UniProt P14735, H332A/Q363A)
T1 construct: made in house; host or cells: E. coli (BL21 inferred, as for the wild type)
T1 sequence (P14735 1-1019 H332A/Q363A): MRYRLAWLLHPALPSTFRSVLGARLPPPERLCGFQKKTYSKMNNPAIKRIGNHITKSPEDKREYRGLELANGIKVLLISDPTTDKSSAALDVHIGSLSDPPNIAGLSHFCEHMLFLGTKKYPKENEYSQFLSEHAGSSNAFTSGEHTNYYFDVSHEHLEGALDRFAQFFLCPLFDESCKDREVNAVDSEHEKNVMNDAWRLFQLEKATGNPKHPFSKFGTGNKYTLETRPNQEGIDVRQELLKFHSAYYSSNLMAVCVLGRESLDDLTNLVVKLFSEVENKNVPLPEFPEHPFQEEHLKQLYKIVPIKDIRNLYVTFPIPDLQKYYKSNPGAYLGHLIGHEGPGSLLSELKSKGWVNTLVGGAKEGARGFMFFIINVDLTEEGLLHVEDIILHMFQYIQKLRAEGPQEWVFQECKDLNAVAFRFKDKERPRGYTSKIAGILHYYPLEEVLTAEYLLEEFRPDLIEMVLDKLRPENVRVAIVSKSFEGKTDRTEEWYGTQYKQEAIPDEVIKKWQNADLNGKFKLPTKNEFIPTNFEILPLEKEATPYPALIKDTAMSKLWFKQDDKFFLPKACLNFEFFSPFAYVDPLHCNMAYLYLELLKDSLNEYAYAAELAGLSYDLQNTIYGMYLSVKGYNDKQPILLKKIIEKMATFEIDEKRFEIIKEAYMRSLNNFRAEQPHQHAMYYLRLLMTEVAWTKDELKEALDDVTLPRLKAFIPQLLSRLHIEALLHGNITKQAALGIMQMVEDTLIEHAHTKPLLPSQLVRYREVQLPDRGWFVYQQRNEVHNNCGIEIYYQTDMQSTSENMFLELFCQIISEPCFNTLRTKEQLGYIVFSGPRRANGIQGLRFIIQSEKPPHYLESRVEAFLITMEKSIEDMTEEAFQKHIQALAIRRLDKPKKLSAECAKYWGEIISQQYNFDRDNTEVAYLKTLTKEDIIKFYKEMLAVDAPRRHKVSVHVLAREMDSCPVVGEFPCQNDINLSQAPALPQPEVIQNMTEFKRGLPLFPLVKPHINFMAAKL
Experiment: FITC-insulin-mAb degradation by double mutant IDE (Gln363Ala, His332Ala)
Type: biochemical
Conditions: 20 µM D10
Source text: Since D10 has been found as the strongest activator of IDE towards the proteolysis of insulin, we analyzed the binding site of the compound D10 for the further analysis. According to the computational results, D10 binds to Gln363 at the IDE exosite and His332 (Fig. 1D). We carried out site-directed mutagenesis by replacing these amino acids into Ala in order to verify that D10 indeed binds to this region via these amino acids. We first mutated Gln363 to Ala and then expressed and purified mutant protein through nickel resin. The effect of D10 on the proteolytic activity of mutant IDE (Gln363Ala) was measured towards FITC-insulin-mAb degradation. […] The activation was about 49-fold in the presence of D10 with wild type IDE (Fig. 2B). Although mutant IDE activity was less responsive to D10 compound compared to wild type IDE, it appeared as if D10 were interacting with IDE through […] and could enhance the activity of mutant IDE. […]
The utility of these novel compounds were tested on degradation of insulin by IDE. […] The proteolysis of insulin by IDE was monitored by measuring the changes in fluorescence, where the reaction was carried out with 100 nM of FITC- insulin-mAb and IDE (80 ng) in 100 µl KH2PO4 buffer at a pH of 7.3. […] The increase in fluorescence was monitored by using Fluoroskan Ascent FL microplate reader (Thermo).

Cc1nn(-c2ccccc2)c2nc(-c3cccc([N+](=O)[O-])c3)n3c4ccccc4nc3c2c1=O [Compound D10]
binding to exosite of double mutant IDE: could not bind to IDE exosite
